Experimental data from patent publication US7579488B2 (Eli Lilly and Company, priority 2003, dated 2009).
Several values for one entry are separate records, joined by “and”; a condition that tells them apart may be missing. Identical values can stand only once. Like-named read-outs stand apart in the source and are kept apart here.

Tests used:
KERtr cells = assay: Keratinocyte proliferation assay; format: cell-based; conditions: Homo sapiens, read-out: Kera. Prolif. IC50
Experimental: 5. The Keratinocyte Proliferation Assay
This Assay is indicative for the treatment of psoriasis.
(5) The Keratinocyte Proliferation Assay:
KERtr cells (Human skin keratinocyte transformed with a retrovirus vector, obtained from ATCC) were plated in 96-well flat-bottomed plates (3000 cells/well) in 100 μl keratinocyte serum free medium supplemented with bovine pituitary extract in the absence of EGF (Life Technologies, Rockville, Md.) and incubated at 37° C. for two days. The cells were treated with various concentrations of VDR ligands (ten-fold serial dilution from 10,000 nM to 0.1 nM in triplicate), dissolved in 100 μl keratinocyte serum free medium supplemented with bovine pituitary extract in the absence of EGF and incubated at 37° C. for 72 hr. […] Potency values (IC50) values were determined as the concentration (nM) of compound that elicited a half-maximal response.

female DBF mice = assay: Mouse hypercalcemia assay; conditions: oral gavage for 6 days
Text: The Mouse Hypercalcemia Assay
The Mouse Hypercalcemia Assay is a six day hypercalcemia test for toxicity and selectivity.
(4) Materials and Method for the Mouse Hypercalcemia Assay:
Weanling, virus-antibody-free, five to six weeks old female DBF mice (Harlan, Indianapolis, Ind.) are used for all the studies. Animals are allowed to acclimate to local vivarium conditions for 2 days. […] The animals then are divided into groups with 4-5 mice per group. Different doses of test compounds prepared in 10% Ethanol and 90% sesame oil are administered to mice orally via gavage for 6 days. 1α-25(OH)2D3 0.5 μg/kg/d was also given to one group of mice as the positive control. […] Raw data of group differences is assessed by analysis of variance (ANOVA) using Fisher's protected least significant difference (PLSD) where the significance level was P<0.05.

IL-10 = IL-10 induction assay; format: cell-based; conditions: Homo sapiens, PBMC
Text: 6. The IL-10 Induction Assay
This is an in vitro efficacy assay for psoriasis, abscess and adhesion. Psoriasis involves both keratinocytes and immune cells. IL-10 is a unique cytokine because it is anti-inflammatory and immunosuppressive. This assay tells us whether a VDRM is able to function as an agonist in PBMCs ([…]) or not.
(6) Materials and Method for Human IL-10 Induction Assay:
Isolation of Peripheral Blood Mononuclear Cells (PBMCs):
B. Prepare sterile tubes with ficol.
C. Add diluted blood to tubes.
E. Discard the top layer and collect the cells from middle layer.
F. Divide all cells into four tubes and add media.
H. Aspirate off media and resuspend.
J. Centrifuge. at 1200 rpm for 10 minutes.
M. Dissolve PHA in water.
N. Plate TPA/PHA treated PBMCs in well plates.
Sample Collection and Assay:
S. Remove all the cells by centrifugation and assay the supernatant for IL-10 by immunoassay.
1) T. Perform […] using anti-human IL-10 antibody coated beads, as described by the manufacturer (Linco Research Inc., St. Charles, Mo.).

rat osteocalcin promoter = assay: OCN (osteocalcin) promoter assay; format: cell-based; conditions: RG-15 (ROS 17/2.8) cells
Experimental: 3. The OCN (Osteocalcin) Promoter Assay
The OCN Promoter Assay is an indicator and marker for osteoporosis. […] Preferred assay results are less than 50 nM.
(3) Materials and Method for The OCN Promoter Assay:
The activation of osteocalcin by VDR ligands was evaluated in a rat osteoblast-like cell line RG-15 (ROS 17/2.8) stably expressing rat osteocalcin promoter fused with luciferase reporter gene. […] Confluent RG-15 cells maintained in DMEM/F-12 medium (3:1) containing 5% FBS, 300 μg/ml G418 and at 37° C. under 5% CO2/95% air atmosphere were trypsinized (0.25% trypsin) and plated into white opaque 96-well cell culture plates (25000 cells/well). After 24 hr, cells (in DMEM/F-12 medium+2% FBS) were treated with various concentrations of compounds, dissolved in DMSO. The final DMSO concentration remained at 0.01% (v/v). After 48 hr treatment, the medium was removed, cells were lysed with 50 μl of lysis buffer (From Luciferase reporter assay system, Roche Diagnostics, Indianapolis, Ind.) and assayed for luciferase activity using the Luciferase Reporter Gene Assay kit from Boehringer Mannheim as per manufacturer's specifications.

VDR = target: T1, VDR (Homo sapiens, UniProt P11473); assay: VDR CTF (Caco-2 cell co-transfection) assay; format: cell-based; conditions: Caco-2 cells, pGal4-VDR-LBD co-transfection, luciferase; several values separated by /
T1 construct: the receptor expression vector pGal4-VDR-LBD (10 ng); expressed in transfected cells; host or cells: Caco-2 cells
T1 sequence (P11473 127-423 limits assumed): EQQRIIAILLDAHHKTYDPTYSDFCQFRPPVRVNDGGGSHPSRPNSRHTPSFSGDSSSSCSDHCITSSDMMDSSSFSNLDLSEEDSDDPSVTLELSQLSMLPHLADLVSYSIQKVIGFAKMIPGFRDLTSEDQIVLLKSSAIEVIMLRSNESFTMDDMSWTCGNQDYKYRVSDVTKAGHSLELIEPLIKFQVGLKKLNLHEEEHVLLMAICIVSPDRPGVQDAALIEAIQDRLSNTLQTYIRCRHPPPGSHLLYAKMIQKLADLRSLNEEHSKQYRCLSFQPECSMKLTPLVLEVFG
Experimental: 2. The Caco-2 Cell Co-Transfection Assay:
The Caco-2 cell assay is an indicator for the undesirable condition of hypercalcemia. This co-transfection assay is a surrogate assay for in vivo calcemic activity of VDR ligands. […] Preferred assay results are greater than 1000 nM.
(2) Materials and Method for the Caco-2 Cell Assay:
Caco-2 cells, grown in phenol red free, DMEM (Invitrogen, Carlsbad, Calif.) containing 10% charcoal-stripped FCS (Hyclone, Logan, Utah), were transfected with Fugene 6 reagent (Roche Diagnostics, Indianapolis, Ind.). Cells (5000/well) were plated 18 h before transfection in a 96 well plate. The Cells were transfected with Gal4-responsive reporter pFRLuc (150 ng, Stratagene, La Jolla Calif.) and the receptor expression vector pGal4-VDR-LBD (10 ng), along with Fugene 6 reagent (0.2 μl/well). The DNA-Fugene complex was formed by incubating the mixture for 30 min at room temperature. The cells were transfected in triplicate for 5 h, and treated with various concentrations of VDR ligands (form 0.01 nM to 10,000 nM concentration range) 18 h post-transfection. The luciferase activity was quantified using Steady-Glo reagent kit (Promega, Madison, Wis.) as per manufacturer's specifications.

RXR-VDR heterodimer = target: T2, RXR-VDR heterodimer (Homo sapiens, UniProt P11473); assay: RXR-VDR heterodimerization assay (SaOS-2 cells); format: cell-based; conditions: Gal4-RXR-DEF/VP16-VDR-LBD luciferase reporter, several values in a cell separated by /
T2 construct: Add the Gal4-RXR-DEF and VP16-VDR-LBD; expressed in transfected cells; host or cells: SaOS-2 cells
T2 sequence (P11473 127-423 limits assumed): T1 sequence (P11473 127-423 limits assumed)
T2 sequence (P19793 201-462 partner limits assumed): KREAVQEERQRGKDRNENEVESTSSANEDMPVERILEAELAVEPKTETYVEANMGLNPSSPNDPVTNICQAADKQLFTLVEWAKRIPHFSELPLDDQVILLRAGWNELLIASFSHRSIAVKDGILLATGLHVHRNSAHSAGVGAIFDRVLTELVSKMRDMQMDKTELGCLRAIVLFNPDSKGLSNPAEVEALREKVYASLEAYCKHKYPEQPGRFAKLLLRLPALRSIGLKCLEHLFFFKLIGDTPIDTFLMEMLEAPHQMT
Experimental: 1. The RXR-VDR Heterodimer Assay:
This assay provides the VDR activity of a test compound.
(1) Materials and Method for RXR-VDR Heterodimerization Assay:
Luciferase Assay Reagent: • Use Steady-Glo Luciferase Reagent from Promega (Cat #E2550) Consists of: a. E2533 Assay Substrate, lyopholized product and b. E2543 Assay Buffer. • Thaw at room temperature • Store Cell Harvesting Aspirate media from culture flask, rinse cells with HBSS and aspirate. Add trypsin and incubate. When cells appear detached, resuspend cells in growth media. Transfer into a new flask with fresh growth media for passaging the cells. Plate well plates and two extra plates A. Cell Count Mix the cell suspension using pipette Use Hematocytometer to count the cells Load cell suspension onto the hemocytometer chamber Count cells. […] In sterile flask add cell suspension to plating media. Mix. Add cells/well. Place the cells in the incubator. Cells should be about 75% confluent prior to transfection. DAY 2: Transfection Step 1: DNA and Media Add plain DMEM media to tubes for mixing the DNA Add the Reporter gene pFR-LUC Add the Gal4-RXR-DEF and VP16-VDR-LBD Step 2: FuGENE and Media Prepare plain DMEM media in a ubes for mixing FuGENE Add FuGENE 6 Transfection Reagent Incubate Step 3: FuGENE, DNA and Media Complex Add FuGENE Media complex from step 2 to DNA Media complex from step 1 Incubate Step 4: FuGENE, DNA and Media Complex to-well plate Add FuGENE-DNA-Media complex from step 3 to each plate Incubate. […] Day 4: Luciferase Assay Read the plates after drug treatment Remove part of media from all the wells and leave remainder Add Steady-Glo Luciferase Reagent mixture/wells Incubate Count each well using a Luminescence counter, Top Count NXT by Packard
Set a delay between plates to reduce the background.

[1] = comparison compounds, human PBMCs
[2] = Rattus norvegicus, comparison compounds
[3] = 72 h, BrdU incorporation, several values separated by /
[4] = serum ionized calcium 6 hours after last dosing
[5] = TPA/PHA stimulated human PBMCs, IL-10 in supernatant by immunoassay, several values separated by /
[6] = Rattus norvegicus, 48 h, 48 hr treatment, luciferase, several values separated by /
[7] = 48 hr treatment, luciferase, several values separated by /

| Structure (SMILES) | IC50 (KERtr cells; comparison compounds) | Mouse Hypercal (female DBF mice; comparison compounds) | IC50 (IL-10; [1]) | EC50 (rat osteocalcin promoter; [2]) | IC50 (KERtr cells; [3]) | EC50 (VDR) | Mouse Hypercal (female DBF mice; [4]) | IC50 (IL-10; [5]) | EC50 (rat osteocalcin promoter; [6]) | EC50 (rat osteocalcin promoter; [7]) | EC50 (RXR-VDR heterodimer) |
| --- | --- | --- | --- | --- | --- | --- | --- | --- | --- | --- | --- |
| CCC(CC)(c1ccc(OCC(O)CO)c(C)c1)c1ccc(OCC(O)C(C)(C)C)c(C)c1 (centres unmarked) [BB, 3-(4-{1-Ethyl-1-[4-(2-hydroxy-3,3-dimethyl-butoxy)-3-methyl-phenyl]-propyl}-2-methyl-phenoxy)-propane-1,2-diol, reference compound] | 10 nM | 20 µg/kg/day | 28 nM | 8.24 nM |  |  |  |  |  |  |  |
| CCC(CC)(c1ccc(OCC(=O)C(C)(C)C)c(C)c1)c1cc2cc(C(=O)NCC(=O)O)ccc2o1 [Ex 7, [(2-{1-[4-(3,3-Dimethyl-2-oxo-butoxy)-3-methyl-phenyl]-1-ethylpropyl}-benzofuran-5-carbonyl)-amino]-acetic acid] |  |  |  |  | 5 nM | 412 nM | >300 µg/kg/day | 24 nM | 0.4 nM |  |  |
| CCC(CC)(c1ccc(OCC(=O)C(C)(C)C)c(C(C)C)c1)c1cc2cc(C(=O)O)ccc2o1 [Ex 17] |  |  |  |  | 13 nM | 589 nM |  | 95 nM |  |  |  |
| CCC(CC)(c1ccc(OCC(O)C(C)(C)C)c(C)c1)c1cc2ccc(C(=O)O)cc2o1 (centres unmarked) [Ex 19, 2-{1-Ethyl-1-[4-(2-hydroxy-3,3-dimethyl-butoxy)-3-methyl-phenyl]-propyl}-benzofuran-6-carboxylic acid] |  |  |  |  | 8 nM | 620 nM |  | 34 nM | 1.4 nM | 0.9 nM |  |
| CCC(CC)(c1ccc(OCC(=O)C(C)(C)C)c(C)c1)c1cc(C)c2oc(C(=O)O)cc2c1 [Ex 21, 5-{1-[4-(3,3-dimethyl-2-oxo-butoxy)-3-methyl-phenyl]-1-ethyl-propyl}-7-methyl-benzofuran-2-carboxylic acid] |  |  |  |  | 18 nM | 462 nM | >1000 µg/kg/day | 80 nM | 2 nM | 1 nM | 50 nM and 5 nM |
| CCC(CC)(c1ccc(OCC(=O)C(C)(C)C)c(C)c1)c1ccc2oc(C(=O)O)cc2c1 [Ex 30, 5-{1-[4-(3,3-dimethyl-2-oxo-butoxy)-3-methyl-phenyl]-1-ethyl-propyl}-benzofuran-2-carboxylic acid] |  |  |  |  | 9 nM | 364 nM | >1000 µg/kg/day | 25 nM | 0.3 nM |  |  |
| CCC(CC)(c1ccc(OCC(O)C(C)(C)C)c(C)c1)c1ccc2oc(C(=O)O)cc2c1 (centres unmarked) [Ex 31, 5-{1-ethyl-1-[4-(2-hydroxy-3,3-dimethyl-butoxy)-3-methyl-phenyl]-propyl}-benzofuran-2-carboxylic acid] |  |  |  |  | 1 nM | 279 nM |  | 5.4 nM | 0.5 nM |  | 12 nM |
| CCC(CC)(c1ccc(OCC(=O)C(C)(C)C)c(C)c1)c1ccc2oc(C(=O)NCC(=O)O)c(C)c2c1 [Ex 38, [(5-{1-[4-(3,3-dimethyl-2-oxo-butoxy)-3-methyl-phenyl]-1-ethyl-propyl}-3-methyl-benzofuran-2-carbonyl)-amino]-acetic acid] |  |  |  |  | 22 nM | 314 nM | >30 µg/kg/day |  | 0.5 nM |  |  |
| CCC(CC)(c1ccc(OCC(=O)C(C)(C)C)c(C)c1)c1cc2cc(C(=O)O)ccc2o1 [Ex. 2] |  |  |  |  | 12 nM | 677 nM | >1000 µg/kg/day |  | 3 nM |  | 75 nM |
| CCC(CC)(c1ccc(OCC(=O)C(C)(C)C)c(C)c1)c1cc2cc(C(=O)Nc3nn[nH]n3)ccc2o1 [Ex. 11, 2-{1-[4-(3,3-dimethyl-2-oxo-butoxy)-3-methyl-phenyl]-1-ethyl-propyl}-benzofuran-5-carboxylic acid (2H-tetrazol-5-yl)-amide] |  |  |  |  | 9 nM | 819 nM | >1000 µg/kg/day | > 2000 nM |  |  | 730 nM |
| CCc1cc(C(CC)(CC)c2cc3cc(C(=O)O)ccc3o2)ccc1OCC(=O)C(C)(C)C [Ex. 12] |  |  |  |  | 16 nM | 515 nM | >1000 µg/kg/day | 49 nM | 0.7 nM |  |  |
| C=C1/C(=C\C=C2/CCC[C@]3(C)[C@@H]([C@H](C)/C=C/[C@@H](O)C4CC4)CC[C@@H]23)C[C@@H](O)C[C@@H]1O [FF, calcipotriol, reference compound] | 103 nM |  | 0.5 nM | 0.28 nM |  |  |  |  |  |  |  |
